This note sets out measurements from paper PMC8750417, “Intracellular Amplifiers of Reactive Oxygen Species Affecting Mitochondria as Radiosensitizers” (Cancers, 2021).

Broadly, the IC50 is the point on the concentration scale where inhibition reaches its midpoint. High values mean weaker potency in that assay, low ones greater potency in that assay. Broadly, the Solubility is the dissolved amount per volume that the medium holds. Higher therefore signals a readily soluble substance.

One series has as its system BL-2 cells. Put plainly: Cell viability, MTT assay, BL-2. The format is cell-based, human. Conditions: BL-2, 48 h incubation. The protocol: (§1) Determination of viability of cells in the presence of prodrugs and controls A2780 and BL-2 cells The medium was removed, and the cells were washed two times with DPBS, trypsinated, and resuspended in RPMI 1640 medium (A2780) supplemented with 5% FBS (for 24 h and 48 h assay) or 10% FBS (for 96 h assay) , 1% L-glutamine, and 1% penicillin/streptomycin.
(§2) A2780 cells: This suspension was spread in the wells of a 96 -well microtiter plate (25000 cells for A2780 per well per 100 μL) and left standing at 37 °C in the chamber filled with CO2 (5%) for overnight. Stock solutions of prodrugs of different concentra tions (1 μL, solvent dmso, final concentrations in wells were 2, 5, 10, 30, 50 μM) were added to the wells and incubated for specific periods of time. Four experiments were conducted for each concentration of the prodrug. Finally, 3-(4,5-dimethylthiazol-2-yl)-2,5-diphenyltetrazolium bromide (MTT, 20 μL of the solution prepared by dissolving MTT (5 mg) in DPBS buffer (1 mL)) was added to each well, incubated for 3 h, treated with sodium dodecyl sulfate (SDS) solution (90 μL, 10% solution in 0.01 M aqueous HC l), and incubated overnight. Afterward, the intensity of the absorbance at 590 nm was measured.
(§3) MTT is converted in live cells to blue dye with the absorbance maximum λ max at 590 nm.
The absorbance at 690 nm was taken as a baseline value. The baseline corrected absorbance at 590 nm (A(590 nm) − A(690 nm)) was applied to calculate the relative number of viable cells. IC50 values were determined by fitting the experimental data expressing the number of viable cells (%, Y-axis) versus drug concentration (μM, X-axis) with a line curve and the X-axis value corresponding to 50% viability was considered as IC50 value according to the line curve (Figure S50, Table S2).
BL-2 cells: The cells were centrifuged, the medium was removed, and the cells were washed two times with DPBS and re-suspended in RPMI 1640 medium containing 5% (48 h incubation) or 10% FBS (96 h incubation), 1% L-glutamine, and 1% penicillin/ streptomycin. This suspension was spread in the wells of a 96-well microtiter plate (50000 cells per well per 100 μL). Other steps were identical to those was described in determination of viability of adherent cells (given above) (Table S3).

The next series has as its system A2780 cells. Put plainly: Cell viability, MTT assay, A2780. In kind it is cell-based, human. The procedure:
as §1, §2, §3
The absorbance at 690 nm was taken as a baseline value. The baseline corrected absorbance at 590 nm (A(590 nm) − A(690 nm)) was applied to calculate the relative number of viable cells. IC50 values were determined by fitting the experimental data expressing the number of viable cells (%, Y-axis) versus drug concentration (μM, X-axis) with a line curve and the X-axis value corresponding to 50% viability was considered as IC50 value according to the line curve (Figure S50, Table S2). […]
On the technique in general: Tetrazolium assays rely on reduction of a dye to a coloured formazan, in cell work by metabolically active cells.

The test system of another series is Jurkat cells. Put plainly: Jurkat flow cytometry (AnnexinA5/PI viability, DiIC1(5) MMP, monobromobimane GSH, cell cycle). The format is cell-based, human. The following applies: 48 h incubation. The protocol: Jurkat cells The cells were counted in MUSE Cell Analyzer using MUSE® Count &Viability Assay Kit (Merck-Millipore, Billerica, MA, USA) and adjusted to a density of 1.0 x 10^5/ml in RPMI 1640 medium (with 10% FCS and 1% glutamine). 9.000 cells per well per 90 µL were seeded into 96 well culture plates. The 30 mM prodrug stock solutions in DMSO were diluted to 300 µM, 100 µM, 30 µM and 10 µM in cell culture medium and 10 µL of the dilutions was pipetted to the cells, receiving final test concentrations of 30 µM, 10 µM, 3 µM and 1 µM. Every concentration was tested in triplicates. Cells with corresponding amounts of DMSO served as negative controls. After 48 h cells were mixed and 25 µL of […]
the cell suspension was incubated with 200 µL of freshly prepared staining solution, consisting of AnnexinA5-Fitc (1 µL), 1,1′,3,3,3′,3′-hexamethylindodicarbocyanine iodide (DiIC1(5), 0.4 µL) (both from ThermoFisher Scientific, Waltham, MA, USA), propidium iodide (PI, 67 ng) and monobromobimane (MBB, 33 µM, both from Sigma-Aldrich, Taufkirchen, Germany) per 1 ml Ringer’s solution (Fresenius Kabi AG, Bad Homburg, Germany). Cells were incubated for 20 min at 4°C and then analyzed in Gallios cytofluorometer™ (Beckman Coulter, Fullerton, CA, USA). Fitc and propidium iodide were excited at 488 nm; Fitc fluorescence was recorded on the FL1 sensor (525/38 nm band pass, BP) and propidium iodide fluorescence was detected on FL3 sensor (620/30 nm BP), DiIC1(5) fluorescence was excited at 638 nm and detected on FL6 sensor at 675/20 nm BP, and monobromobimane fluorescence was excited at 405 nm and detected on FL9 sensor at 430/40 nm BP. To eliminate any fluorescence bleed-through, electronic compensation was used. Data were analyzed employing Kaluza™ software Version 1.2 (Beckman Coulter, Fullerton, CA, USA) and processed in Microsoft Excel (Figures S51-S54, Table S5). Cells negative for Annexin A5-Fitc and propidium iodide were considered viable. IC50 values were determined by fitting the % values of Ax-PI- cells versus drug concentration with a sigmoidal curve using GraphPad Prism software. Reduced glutathione (an intracellular thiol) can be detected by monobromobimane, a dye that becomes fluorescent after non-enzymatic binding to thiols.[S3] For analysis of amount of mitochondrial membrane potential or reduced glutathione the mean fluorescence index (MFI) was determined from viable cells by gating on Ax -PI- events.
Table S5. Effects of the prodrugs on the viability of Jurkat cell lines (IC50 values) after 48
On the technique in general: In flow cytometry, cells or beads pass a laser one at a time.

The nature of series [1]: Solubility in RPMI 1640 medium, precipitation seen by bright field optical microscopy. Conditions: 48 h incubation in RPMI 1640, FBS 5%, DMSO 1%; first signs of precipitation. The procedure:
The latter medium was selected, since we used it for the cellular assays. […] Then we monitored the formation of (not detectable in the previous experiment) aggregated species in prodrug solutions that appeared transparent (concentrations < 50 µM) by using dynamic light scattering. […]
Solubility of drugs in aqueous buffers
Observing prodrug precipitation by using bright field optical microscopy […]
glutamine (1 %), and penicillin/streptomycin (1 %) was filled into 96-well microtiter plates (100 µL for each well) and compounds in DMSO stock solution (1 µL) were added. Each well was monitored by using bright field optical microscopy both immediately after […]

A short description of series [2]: n-octanol/water partition coefficient (logP) by RP-TLC. The following applies: for logP (Hydrolyzed Prodrug): n-octanol/water partition coefficient of the hydrolyzed boronic acid (_BA) form of the prodrug named. In kind it is physicochemical. The procedure: Determination of n-octanol/water partition coefficients (LogP) […]
mixture of dichloromethane/CH3OH at proper concentrations. Commercially available […]
7.4) (6/4, v/v) was used. The solvent migration distance was around 4.5 cm. The plates […]
and its distance was manually measured. All measurements were done in at least triplicate and average values were used in further calculations. All experiments were performed at ambient temperature (22 ± 2 °C). […]

Series [3] can be described thus: Prodrug-induced generation of ROS in cell free settings (DCFH/H2O2). Conditions: relative acceleration of the rate of DCFH fluorescence increase with H2O2, pH 7.4; FeSO4 = 1.0. From the text:
As previously reported, the NAAF-prodrugs react with ROS like H2O2, first leading to the cleavage of the B-C-bond with the formation of the phenol derivatives (product 2c-1, Figure S49, SI). The latter compounds exist in equilibrium with the corresponding phenolates. The phenolates undergo the spontaneous 1,6-elimination of para-quinone methide (QM) followed by the release of CO2 with the formation of the N-alkylaminoferrocene NAAF drugs (product 2c-2, Figure S46, SI). By using electrospray ionization mass spectrometry (ESI–MS), we confirmed for one representative prodrug 2c that it reacts with H2O2 in cell free settings according to this common mechanism (ESI-MS, Figures S46–S48, SI). The NAAF is further oxidized by H2O2 or molecular oxygen with the generation of drug NAAF^+ and highly toxic HO• or/and O2^•−. Finally, the NAAF^+ is reduced by glutathione (GSH), thereby closing the catalytic cycle, in which the NAAF acts as a catalyst. We evaluated the formation of HO• or/and O2^•− by using 2′,7′-dichlorodihydrofluorescein (DCFH) as a probe (Table 1, Figure S49, SI). This probe is oxidized to the fluorescent product 2′,7′-dichlorofluorescein (DCF) in the presence of HO• or/and O2^•−. […] The lower activity of 2c and 2d correlates with their higher lipophilicity and their correspondingly higher propensity to form aggregates in aqueous solution (Figure S45, SI).
Prodrug-induced generation of ROS in cell free settings
2',7'-Dichlorodihydrofluorescein diacetate (DCFH-DA, 4.9 mg) was dissolved in DMF (100 μL) and mixed with aqueous NaOH (0.1 M, 900 μL). The resulting mixture was incubated for 30 min at 22 °C in the dark to obtain a stock solution of 2',7'-dichlorodihydrofluorescein (DCFH, 10 mM). Next, DCFH (1 µL ) was added to the solution containing MOPS buf fer (100 mM, pH 7.4), N,N,N'N' -e thylenediaminetetraacetic acid (EDTA , 10 mM) and glutathione (GSH , 5 mM) (1 mL, final concentration of DCFH 10 μM). The reaction mixture was heated to 37 °C and H2O2 (1 µL, final concentration 10 mM) was added. The reaction was monitored by fluorescence spectroscopy: λex = 501 nm, λem = 523 nm. After around 5 min, prodrugs (1 mM in DMF, 10 μL) or positive control FeSO4 (1 mM in water, 10 μL) were added, and the fluorescence monitoring was continued until the fluorescence signal growth was stalled after approximately 100 to 300 min. A representative kinetics of ROS […]
The data are presented in Table 1 as relative acceleration of the rate of the fluorescence increase, where the rate of the fluorescence increase obtained in the presence of positive control FeSO4 was set […]
y = a time + b (a = (dF/dt) , min-1)
Figure S49. Increase of the fluorescence intensity (λex = 501 nm, λem = 523 nm) upon oxidation of DCFH by H2O2 in the presence of FeSO4. Experimental details are provided in the description above. The time point of the FeSO4 addition is indicated with a black […]
(also on this page, place not known: ° C µL) buffer N,N,N'N'-ethylenediaminetetraacetic (EDTA, (GSH, ° C FeSO 4 (λ ex λ em Fluorescence (a.u.) (dF/dt)0, min -1 Addition of)
(1 picture or pasted object on this page, not shown here)

`C1=CCC=C1.CC1(C)OB(c2ccc(COC(=O)N(Cc3cn(CCC[P+](c4ccccc4)(c4ccccc4)c4ccccc4)nn3)C3C=CC=C3)cc2)OC1(C)C.[Fe+2]` [5c, reference compound]: the IC50 with BL-2 cells was found to be 5 µM; with A2780 cells (A2780, 24 h incubation) it was 10 ± 3 µM; in the series with A2780 cells (A2780, 48 h incubation) it was 5 ± 2 µM; with A2780 cells (A2780, 96 h incubation), 5 ± 2 µM; in the series with Jurkat cells, 20 µM.
In turn, `CN(C)C(=O)c1ccc(COC(=O)N(Cc2cn(Cc3ccc(Cn4cc(Cc5ccccc5)nn4)cc3)nn2)[c-]2cccc2)cc1.[Fe+2].c1cc[cH-]c1` [2c_c] returned a Solubility in series [1] of 55 ± 5 µM. Also, the IC50 with A2780 cells (A2780, 96 h incubation) amounted to 6.1 ± 1.5 µM. Also, the “logP (Prodrug)” value in series [2] (n-octanol/water partition coefficient of the intact prodrug (or control 2c_c), RP-TLC, MOPS pH 7.4) was found to be 3.90 ± 0.08. The “ROS Release Efficacy” value in series [3] worked out at 0.050 ± 0.003.
Turning to `O=C(OCc1ccc(B(O)O)cc1)N(Cc1cn(Cc2ccc(Cn3cc(Cc4ccccc4)nn3)cc2)nn1)[c-]1cccc1.[Fe+2].c1cc[cH-]c1` [2c_BA], in series [2], the “logP (Hydrolyzed Prodrug)” value is given as 3.23 ± 0.11.
In turn, `[Fe+2].c1cc[cH-]c1.c1ccc(CN[c-]2cccc2)cc1` [compound 4] yielded an IC50 with A2780 cells (A2780, 48 h incubation) above 50 µM.
With `CCOC(=O)CCCCCn1cc(CN(C(=O)OCc2ccc(B(O)O)cc2)[c-]2cccc2)nn1.[Fe+2].c1cc[cH-]c1` [1_BA, reference compound], the “logP (Hydrolyzed Prodrug)” value in series [2] is 2.83 ± 0.07.
Molecule `[Fe+2].c1cc[cH-]c1.c1ccc(Cn2cc(CN[c-]3cccc3)nn2)cc1` [compound 3] came in with an IC50 in the series with A2780 cells (A2780, 48 h incubation) above 50 µM.
